{"source": "patent US10508089B2", "about": "“Use of N-(1,3,4-Oxadiazol-2-yl)arylcarboxamides or their salts for controlling unwanted plants in areas of transgenic crop plants being tolerant to HPPD inhibitor herbicides” (BASF SE, priority 2014, dated 2019)", "key": {"[1]": {"biological_target": "PfHPPD Evo 40 SEQ ID No 27 (Pseudomonas sp., UniProt P80064, A172V/A339E/A53E/D148E/D45N/E105D/E287Q/E300V/E334P/F143Y/G286D/G335S/H150N/H254A/H63N/I158V/I187A/I249V/K92N/L18F/N24G/N280D/S245T/S257K/S301E/T205S/V65I)", "sequence (P80064 1-354 with tags or gaps with the stated changes limits assumed)": "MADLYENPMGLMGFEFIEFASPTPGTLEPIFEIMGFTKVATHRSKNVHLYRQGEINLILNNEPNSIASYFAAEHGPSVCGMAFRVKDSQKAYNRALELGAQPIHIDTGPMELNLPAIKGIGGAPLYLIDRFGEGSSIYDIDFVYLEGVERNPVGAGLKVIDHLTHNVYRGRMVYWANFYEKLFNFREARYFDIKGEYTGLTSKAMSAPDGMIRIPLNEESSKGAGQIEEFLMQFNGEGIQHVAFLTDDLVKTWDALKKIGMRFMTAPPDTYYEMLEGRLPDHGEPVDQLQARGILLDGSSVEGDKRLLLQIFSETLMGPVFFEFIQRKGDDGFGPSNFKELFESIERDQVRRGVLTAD", "test": "biochemical", "set-up": "species or system Pseudomonas fluorescens"}, "[2]": {"system": "wild type soybean Merlin", "format": "in vivo", "details": "14 days after treatment, total 4"}, "[3]": {"system": "wild type soybean Thorne", "format": "in vivo", "details": "14 days after treatment, total 4"}}, "note": "Where two headings read alike, the source gives them in different places."}
{"smiles": "Cc1nnc(NC(=O)c2ccc(C(F)(F)F)c(S(C)(=O)=O)c2C)o1", "note": "[Compound 2-145]", "values": [{"measurement": "IC50", "setting": "[1]", "result": 5.01, "unit": "µM"}, {"measurement": "Number of plants categorized herbicide tolerance “0” (marginal; 41%-100% damaged leaf area)", "setting": "[2]; Merlin (wt), 6.25 g Al/ha", "result": 4}, {"measurement": "Number of plants categorized herbicide tolerance “1” (moderate; 26%-40% damaged leaf area)", "setting": "[2]; Merlin (wt), 6.25 g Al/ha", "result": 0}, {"measurement": "Number of plants categorized herbicide tolerance “2” (good; 16%-25% damaged leaf area)", "setting": "[2]; Merlin (wt), 6.25 g Al/ha", "result": 0}, {"measurement": "Number of plants categorized herbicide tolerance “3” (high; less than or equal to 15% damaged leaf area)", "setting": "[2]; Merlin (wt), 6.25 g Al/ha", "result": 0}, {"measurement": "Number of plants categorized herbicide tolerance “0” (marginal; 41%-100% damaged leaf area)", "setting": "[2]; Merlin, 25 g Al/ha", "result": 4}, {"measurement": "Number of plants categorized herbicide tolerance “1” (moderate; 26%-40% damaged leaf area)", "setting": "[2]; Merlin, 25 g Al/ha", "result": 0}, {"measurement": "Number of plants categorized herbicide tolerance “2” (good; 16%-25% damaged leaf area)", "setting": "[2]; Merlin, 25 g Al/ha", "result": 0}, {"measurement": "Number of plants categorized herbicide tolerance “3” (high; less than or equal to 15% damaged leaf area)", "setting": "[2]; Merlin, 25 g Al/ha", "result": 0}, {"measurement": "Number of plants categorized herbicide tolerance “0” (marginal; 41%-100% damaged leaf area)", "setting": "[3]; Thorne (wt), 6.25 g Al/ha", "result": 4}, {"measurement": "Number of plants categorized herbicide tolerance “1” (moderate; 26%-40% damaged leaf area)", "setting": "[3]; Thorne (wt), 6.25 g Al/ha", "result": 0}, {"measurement": "Number of plants categorized herbicide tolerance “2” (good; 16%-25% damaged leaf area)", "setting": "[3]; Thorne (wt), 6.25 g Al/ha", "result": 0}, {"measurement": "Number of plants categorized herbicide tolerance “3” (high; less than or equal to 15% damaged leaf area)", "setting": "[3]; Thorne (wt), 6.25 g Al/ha", "result": 0}, {"measurement": "Number of plants categorized herbicide tolerance “0” (marginal; 41%-100% damaged leaf area)", "setting": "[3]; Thorne, 25 g Al/ha", "result": 4}, {"measurement": "Number of plants categorized herbicide tolerance “1” (moderate; 26%-40% damaged leaf area)", "setting": "[3]; Thorne, 25 g Al/ha", "result": 0}, {"measurement": "Number of plants categorized herbicide tolerance “2” (good; 16%-25% damaged leaf area)", "setting": "[3]; Thorne, 25 g Al/ha", "result": 0}, {"measurement": "Number of plants categorized herbicide tolerance “3” (high; less than or equal to 15% damaged leaf area)", "setting": "[3]; Thorne, 25 g Al/ha", "result": 0}]}
